In US5061794A, “Cephalosporin derivatives, and antibacterial agents” (priority 1986, dated 1991):
Values after ≈ are worked out from the molar mass of the structure shown. Read-outs that look alike come from different tables or passages of the source.

Legend:
Ps. aeruginosa IF03445 = experiment: in vitro antibacterial activity, agar plate dilution method (MIC); format: cell-based, Pseudomonas aeruginosa; details: Pseudomonas aeruginosa, 10^6 CFU/ml
Method in brief: (§1)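 Inoculum 10^6 CFU/ml; medium Mueller Hinton agar with graded antibiotic; 37° C./16 h; endpoint MIC (μg/ml).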

Ps. aeruginosa AKR17 = experiment: as above; format: cell-based, Pseudomonas aeruginosa; details: Pseudomonas aeruginosa, 16 h; Ps. aeruginosa AKR17; 10^6 CFU/ml; read-out: Minimum Inhibitory Concentration (MIC)
Method in brief: as §1

Ps. aeruginosa AK 109 = experiment: as above; format: cell-based, Pseudomonas aeruginosa; details: Pseudomonas aeruginosa, AK109, 16 h, 10^6 CFU/ml
Method in brief: as §1

A. calcoaceticus No. 4 = experiment: as above; format: cell-based, Acinetobacter calcoaceticus; details: Acinetobacter calcoaceticus, NO.4, 16 h, 10^6 CFU/ml
Method in brief: as §1

Ps. cepacia 23 = experiment: as above; format: cell-based, Pseudomonas cepacia; details: read-out: Minimum Inhibitory Concentration (MIC)
Method in brief: as §1

K. pneumoniae No. 42 = experiment: as above; format: cell-based; details: Klebsiella pneumoniae, NO.42, 16 h, read-out: Minimum Inhibitory Concentration (MIC), *K. pneumoniae No. 42, lactamase-producing strain; 10^6 CFU/ml
Method in brief: as §1

S. marcescens IAM 1184 = experiment: as above; format: cell-based; details: Serratia marcescens, IAM1184, 16 h, read-out: Minimum Inhibitory Concentration (MIC)
Method in brief: as §1

E. coli GN5482 = experiment: as above; format: cell-based; details: Escherichia coli
Method in brief: as §1

K. oxytoca GN10650 = experiment: as above; format: cell-based; details: Klebsiella oxytoca, 10^6 CFU/ml
Method in brief: as §1

K. pneumoniae PCI-602 = experiment: as above; format: cell-based; details: Klebsiella pneumoniae, PCI602, 16 h, 10^6 CFU/ml
Method in brief: as §1

E. coli NIHJ JC2 = experiment: as above; format: cell-based; details: Escherichia coli, NIHJJC2, 16 h, read-out: Minimum Inhibitory Concentration (MIC), E. coli NIHJ JC2, 10^6 CFU/ml, 37° C.
Method in brief: as §1

P. vulgaris HX-19 = experiment: as above; format: cell-based; details: Proteus vulgaris, HX19, 16 h, P. vulgaris HX-19; 10^6 CFU/ml; read-out: Minimum Inhibitory Concentration (MIC)
Method in brief: as §1

P. vulgaris No. 33 = experiment: as above; format: cell-based; details: Proteus vulgaris, 10^6 CFU/ml
Method in brief: as §1

E. cloacae 963 = experiment: as above; format: cell-based; details: Enterobacter cloacae, 963, 16 h, read-out: Minimum Inhibitory Concentration (MIC), E. cloacae 963; 10^6 CFU/ml
Method in brief: as §1

M. morganii GN5407 = experiment: as above; format: cell-based; details: Morganella morganii, GN5407, 16 h, read-out: Minimum Inhibitory Concentration (MIC), *M. morganii GN5407, lactamase-producing strain; 10^6 CFU/ml
Method in brief: as §1

S. aureus 209P NIHJ-JC1 = experiment: as above; format: cell-based; details: Staphylococcus aureus, 16 h, S. aureus 209P NIHJ-JC1; 10^6 CFU/ml, 37° C., 16 hours; read-out: Minimum Inhibitory Concentration (MIC)
Method in brief: as §1

S. marcescens No. 16-2 = experiment: as above; format: cell-based; details: Serratia marcescens, NO.162, 16 h; *S. marcescens No. 16-2, lactamase-producing strain; 10^6 CFU/ml; read-out: Minimum Inhibitory Concentration (MIC)
Method in brief: as §1

E. cloacae Nek 39 = experiment: as above; format: cell-based; details: Enterobacter cloacae, NEK39, 16 h, 10^6 CFU/ml
Method in brief: as §1

E. coli CSH(RE45) = experiment: microbe, parasite or virus in culture; format: cell-based; details: Escherichia coli, 16 h, read-out: Minimum Inhibitory Concentration (MIC), *E. coli CSH(RE45), lactamase-producing strain; 10^6 CFU/ml
Method in brief: as §1

E. coli CSH2 (RK1) = experiment: microbe, parasite or virus in culture; format: cell-based; details: Escherichia coli, 16 h, read-out: Minimum Inhibitory Concentration (MIC), *E. coli CSH2 (RK1), lactamase-producing strain; 10^6 CFU/ml
Method in brief: as §1

[1] = 16 h, Ps. aeruginosa IF03445, read-out: Minimum Inhibitory Concentration (MIC)
[2] = Ps. aeruginosa AK 109, read-out: Minimum Inhibitory Concentration (MIC)
[3] = A. calcoaceticus No. 4, read-out: Minimum Inhibitory Concentration (MIC)
[4] = NO.33, 16 h, read-out: Minimum Inhibitory Concentration (MIC), *P. vulgaris No. 33, lactamase-producing strain
[5] = read-out: Minimum Inhibitory Concentration (MIC), *E. cloacae Nek 39, lactamase-producing strain
[6] = GN10650, 16 h, read-out: Minimum Inhibitory Concentration (MIC), *K. oxytoca GN10650, lactamase-producing strain
[7] = read-out: Minimum Inhibitory Concentration (MIC), K. pneumoniae PCI-602

Structure (SMILES) | MIC (Ps. aeruginosa IF03445; [1]) [µg/mL] | MIC (Ps. aeruginosa AKR17) [µg/mL] | MIC (Ps. aeruginosa AK 109; [2]) [µg/mL] | MIC (A. calcoaceticus No. 4; [3]) [µg/mL] | MIC (Ps. cepacia 23; Burkholderia cepacia, 23, 16 h) [µg/mL] | MIC (K. pneumoniae No. 42) [µg/mL] | MIC (S. marcescens IAM 1184) [µg/mL] | MIC (E. coli NIHJ JC2) [µg/mL] | MIC (P. vulgaris HX-19) [µg/mL] | MIC (P. vulgaris No. 33; [4]) [µg/mL] | MIC (E. cloacae 963) [µg/mL] | MIC (M. morganii GN5407) [µg/mL] | MIC (S. aureus 209P NIHJ-JC1) [µg/mL] | MIC (S. marcescens No. 16-2) [µg/mL] | MIC (E. cloacae Nek 39; [5]) [µg/mL] | MIC (E. coli CSH(RE45)) [µg/mL] | MIC (E. coli CSH2 (RK1)) [µg/mL] | MIC (K. oxytoca GN10650; [6]) [µg/mL] | MIC (K. pneumoniae PCI-602; [7]) [µg/mL] | further results
CO/N=C(\C(=O)N[C@@H]1C(=O)N2C(C(=O)O)=C(CSc3nc(-c4ccc(OC(C)=O)cc4)c(CC(=O)O)s3)CS[C@H]12)c1csc(N)n1 [compound 18, disodium 3-[4-(4-acetoxyphenyl)-5-carboxylatemethylthiazol-2-yl]thiomethyl-7δ-[2-(2-aminothiazol-4-yl)-2-methoxyiminoacetamido]-3-cephem-4-carboxylate, reference compound] | 100 | > 100 | > 100 | 100 | 12.5 | 0.78 | 0.78 | 0.78 | < 0.006 | 0.1 | 0.78 | 0.39 | 3.12 | 100 | 12.5 | 1.56 | 0.78 | – | – | MIC (E. coli GN5482; 16 h, *E. coli GN5482, lactamase-producing strain, 10^6 CFU/ml, read-out: Minimum Inhibitory Concentration (MIC)): 3.12 µg/mL; MIC (K. oxytoca GN10650; 16 h, *K. oxytoca GN10650, lactamase-producing strain, read-out: Minimum Inhibitory Concentration (MIC)): 25 µg/mL; MIC (K. pneumoniae PCI-602; K. pneumoniae PCI-602, read-out: Minimum Inhibitory Concentration (MIC)): 0.2 µg/mL
CC(C)(O/N=C(\C(=O)N[C@@H]1C(=O)N2C(C(=O)O)=C(CSc3nc(-c4ccc(O)cc4)c(CC(=O)O)s3)CS[C@H]12)c1csc(N)n1)C(=O)O [compound 19, reference compound] | – | 25 (≈ 34 µM) | – | – | – | 1.56 (≈ 2.12 µM) | 0.78 (≈ 1.06 µM) | 3.12 (≈ 4.25 µM) | < 0.006 | 0.05 (≈ 0.068 µM) | 3.12 (≈ 4.25 µM) | 1.56 (≈ 2.12 µM) | 50 (≈ 68 µM) | 25 (≈ 34 µM) | 6.25 (≈ 8.51 µM) | 1.56 (≈ 2.12 µM) | 1.56 (≈ 2.12 µM) | 1.56 (≈ 2.12 µM) | 0.39 (≈ 0.531 µM) | MIC (Ps. aeruginosa IF03445; IF03445, 16 h, read-out: Minimum Inhibitory Concentration (MIC), Ps. aeruginosa IF03445): 12.5 µg/mL (≈ 17 µM); MIC (Ps. aeruginosa AK 109; read-out: Minimum Inhibitory Concentration (MIC), Ps. aeruginosa AK 109): 6.25 µg/mL (≈ 8.51 µM); MIC (A. calcoaceticus No. 4; read-out: Minimum Inhibitory Concentration (MIC), A. calcoaceticus No. 4): 6.25 µg/mL (≈ 8.51 µM); MIC (Ps. cepacia 23; Burkholderia cepacia, 16 h, Ps. cepacia 23, 10^6 CFU/ml): 0.2 µg/mL (≈ 0.272 µM); MIC (E. coli GN5482; GN5482, 16 h, read-out: Minimum Inhibitory Concentration (MIC)): 3.12 µg/mL (≈ 4.25 µM)
CC(=O)Oc1ccc(-c2nc(SCC3=C(C(=O)O)N4C(=O)[C@@H](NC(=O)/C(=N\OC(C)(C)C(=O)O)c5csc(N)n5)[C@H]4SC3)sc2CC(=O)O)cc1 [compound 20, trisodium 3-[4-(4-acetoxyphenyl)-5-carboxylatemethylthiazol-2-yl]thiomethyl-7β-[2-(2-aminothiazol-4-yl)-2-(1-carboxylate-1-methylethoxyimino)acetamido]-3-cephem-4-carboxylate, reference compound] | 25 | > 100 | 25 | > 100 | 6.25 | 3.12 | 1.56 | 3.12 | < 0.006 | – | 6.25 | 3.12 | 50 | 100 | – | 3.12 | 3.12 | 3.12 | 1.56 | MIC (E. coli GN5482; GN5482, 16 h, read-out: Minimum Inhibitory Concentration (MIC), *E. coli GN5482, lactamase-producing strain, 10^6 CFU/ml): 6.25 µg/mL; MIC (P. vulgaris No. 33; 16 h, *P. vulgaris No. 33, lactamase-producing strain, read-out: Minimum Inhibitory Concentration (MIC)): 0.1 µg/mL; MIC (E. cloacae Nek 39; *E. cloacae Nek 39, lactamase-producing strain, read-out: Minimum Inhibitory Concentration (MIC)): 25 µg/mL
